Experiments:
RARα = target: T1, RARα (Homo sapiens, UniProt P10276); test: ligand binding assay, RARα; conditions: Kd line of EC50/(EFFICACY)/Kd, read-out: RAR Kd α
T1 sequence (P10276 1-462): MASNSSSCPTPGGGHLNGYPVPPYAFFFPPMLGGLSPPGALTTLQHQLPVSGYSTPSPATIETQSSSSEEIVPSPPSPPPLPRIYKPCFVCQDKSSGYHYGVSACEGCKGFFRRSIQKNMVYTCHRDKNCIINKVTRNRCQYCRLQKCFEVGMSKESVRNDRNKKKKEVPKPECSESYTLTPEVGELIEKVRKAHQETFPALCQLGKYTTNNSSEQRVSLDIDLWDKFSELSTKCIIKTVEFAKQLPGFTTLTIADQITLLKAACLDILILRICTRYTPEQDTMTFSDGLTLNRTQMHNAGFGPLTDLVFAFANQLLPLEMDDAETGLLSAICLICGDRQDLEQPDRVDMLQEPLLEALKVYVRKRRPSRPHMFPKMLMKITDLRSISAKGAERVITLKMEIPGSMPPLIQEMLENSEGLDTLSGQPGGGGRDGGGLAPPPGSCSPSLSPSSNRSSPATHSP
Source text: (§1) Assays described below measure the ability of a compound to bind to, and/or activate various retinoid receptor subtypes. When in these assays a compound binds to a given receptor subtype and activates the transcription of a reporter gene through that subtype, then the compound is considered an agonist of that receptor subtype. […] In the below described assays the ability of the compounds to bind to RARα, RARβ, RARγ, RXRα, RXRβ and RXRγ receptors, and the ability or inability of the compounds to activate transcription of a reporter gene through these receptor subtypes can be tested.
(§2) A holoreceptor transactivation assay and a ligand binding assay which measure the antagonist/agonist like activity of the compounds of the invention, or their ability to bind to the several retinoid receptor subtypes, respectively, are described in published PCT Application No. WO WO93/11755 (particularly on pages 30-33 and 37-41) published on Jun. 24, 1993, the specification of which is also incorporated herein by reference. A detailed experimental procedure for holoreceptor transactivations has been described by Heyman et al. Cell 68, 397-406, (1992); Allegretto et al. J. Biol. Chem. 268, 26625-26633, and Mangelsdorf et al. The Retinoids: Biology, Chemistry and Medicine, pp 319-349, Raven Press Ltd., New York, which are expressly incorporated herein by reference. The results obtained in this assay are expressed in EC50 numbers, as they are also in the chimeric receptor transactivation assay. The results of ligand binding assay are expressed in Kd numbers. (See Cheng et al. Biochemical Pharmacology Vol. 22 pp 3099-3108, expressly incorporated herein by reference.)
(§3) The results if the ligand binding assay for several preferred compounds of the invention are included in Table 1.

RARγ = target: T2, RARγ (Homo sapiens, UniProt P13631); test: ligand binding assay, RARγ; conditions: Kd line of EC50/(EFFICACY)/Kd, read-out: RAR Kd γ
T2 sequence (P13631 1-454): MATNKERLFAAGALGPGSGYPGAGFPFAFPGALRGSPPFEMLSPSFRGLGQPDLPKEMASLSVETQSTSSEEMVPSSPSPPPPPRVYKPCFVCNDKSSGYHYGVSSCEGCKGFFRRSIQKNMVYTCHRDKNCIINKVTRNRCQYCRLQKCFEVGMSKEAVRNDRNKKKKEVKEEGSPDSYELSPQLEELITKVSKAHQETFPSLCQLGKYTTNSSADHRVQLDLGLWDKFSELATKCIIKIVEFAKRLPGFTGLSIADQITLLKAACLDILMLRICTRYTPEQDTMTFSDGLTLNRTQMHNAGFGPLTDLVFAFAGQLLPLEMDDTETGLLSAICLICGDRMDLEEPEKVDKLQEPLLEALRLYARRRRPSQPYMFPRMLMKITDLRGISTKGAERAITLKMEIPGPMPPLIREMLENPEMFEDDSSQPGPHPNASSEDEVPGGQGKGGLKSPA
Source text: as §1, §2, §3

RARβ = target: T3, RARβ (Homo sapiens, UniProt P10826); test: ligand binding assay, RARβ; conditions: Kd line of EC50/(EFFICACY)/Kd, read-out: RAR Kd β
T3 sequence (P10826 1-455): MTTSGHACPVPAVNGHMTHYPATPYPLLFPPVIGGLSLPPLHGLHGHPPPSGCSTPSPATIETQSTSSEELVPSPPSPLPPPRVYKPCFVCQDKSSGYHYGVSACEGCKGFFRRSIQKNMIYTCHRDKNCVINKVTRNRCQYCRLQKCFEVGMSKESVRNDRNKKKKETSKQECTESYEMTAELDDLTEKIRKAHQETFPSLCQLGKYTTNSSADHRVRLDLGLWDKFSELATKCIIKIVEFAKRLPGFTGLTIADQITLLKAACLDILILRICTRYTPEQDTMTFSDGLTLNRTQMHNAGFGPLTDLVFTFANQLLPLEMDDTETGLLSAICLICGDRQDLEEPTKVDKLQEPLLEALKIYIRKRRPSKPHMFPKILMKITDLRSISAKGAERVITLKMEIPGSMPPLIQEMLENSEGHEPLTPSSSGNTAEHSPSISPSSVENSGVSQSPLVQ
Source text: as §1
as §2, with “A detailed experimental procedure for holoreceptor transactivations has been described by Heyman et al. Cell 68, 397-406, (1992); Allegretto et al. J. Biol. Chem. 268, 26625-26633, and Mangelsdorf et al. The Retinoids: Biology, Chemistry and Medicine, pp 319-349, Raven Press Ltd., New York, which are expressly incorporated herein by reference.” left out

P450RAI-1 = target: T4, P450RAI-1 (Homo sapiens, UniProt O43174); test: P450RAI-1 cell-based inhibitor assay; conditions: P450RAI-1 stably transfected HeLa cells, [3H]-RA metabolism, 3 hours at 37° C.; read-out: P450RAI INHIBITION DATA INTACT HELA IC50
T4 construct: expressed in transfected cells; host or cells: HeLa cells, stably transfected, hygromycin selection
T4 sequence (O43174 1-497): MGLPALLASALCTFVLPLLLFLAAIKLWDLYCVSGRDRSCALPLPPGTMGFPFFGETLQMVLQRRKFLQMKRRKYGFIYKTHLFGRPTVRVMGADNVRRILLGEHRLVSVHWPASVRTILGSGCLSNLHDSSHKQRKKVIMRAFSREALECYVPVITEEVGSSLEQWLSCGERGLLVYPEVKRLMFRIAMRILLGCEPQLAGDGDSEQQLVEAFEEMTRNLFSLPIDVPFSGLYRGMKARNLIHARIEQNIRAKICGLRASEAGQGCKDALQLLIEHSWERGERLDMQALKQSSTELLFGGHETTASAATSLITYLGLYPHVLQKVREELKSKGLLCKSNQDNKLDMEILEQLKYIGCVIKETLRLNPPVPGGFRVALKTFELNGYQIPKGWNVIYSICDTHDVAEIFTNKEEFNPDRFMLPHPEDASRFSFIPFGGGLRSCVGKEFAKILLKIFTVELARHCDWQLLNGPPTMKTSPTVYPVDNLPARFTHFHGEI
Method: P450RAI-1 stably transfected HeLa cells are maintained in […] tissue culture dishes in Modified Eagle's Medium (MEM) containing 10% Fetal Bovine Serum (FBS) and 100 μg/ml hygromycin. Exponentially growing cells are harvested by incubating in trypsin. Cells are then washed with 1× Phosphate Buffered Saline (PBS) and plated in a 48-well plate at 5×10^5 cells in 0.2 ml MEM medium containing 10% FBS and 0.05 μCi[^3H]-RA in the presence or absence of increasing concentrations of the test compounds. The compounds are diluted in 100% DMSO and then added in triplicate wells at either 10, 1 or 0.1 μM final concentration. As a positive control for RA metabolism inhibition, cells are also incubated with ketoconazole at 100, 10 and 1 μM. Cell are incubated for 3 hours at 37° C. […] The water soluble radioactivity is quantified using a β-scintillation counter. IC50 values represent the concentration of inhibitor required to inhibit all-trans-RA metabolism by 50 percent and are derived manually from log-transformed data.

skin of hairless mice = test: topical skin irritation test in hairless mice; assay type: in vivo, mouse; conditions: topical in acetone, once daily days 1 through 5, mean ±SD, range 0-21
Source text: Mice were housed individually throughout the dosing period.
Doses are disclosed as nmol/25 g.
The grading scale used is as follows:
Values can range from 0-9.
Values can range from 0-8.

Row | SMILES | Kd (RARα) [µM] | Kd (RARγ) [µM] | Kd (RARβ) [µM] | IC50 (P450RAI-1) [µM] | Cutaneous Toxicity Score (Blackjack Score) (skin of hairless mice; 100 nmole (nmol/25 g)) | Cutaneous Toxicity Score (Blackjack Score) (skin of hairless mice; 300 nmole (nmol/25 g)) | Cutaneous Toxicity Score (Blackjack Score) (skin of hairless mice; 1000 nmole (nmol/25 g))
1 | CC1(C)CC(C)(C)c2cc(C#Cc3ccc(C(=O)O)cc3)cc(C3CC3)c2O1 [Compound 34, 4-(8-Cyclopropyl-2,2,4,4-tetramethyl-chroman-6-yl-ethynyl)-benzoic Acid] | 0.0615 | 0.0025 | 0.015 | 0.13 |  |  | 
2 | CC1(C)CC(C)(C)c2cc(C#Cc3ccc(CC(=O)O)c(F)c3)ccc2O1 [Compound 32, [2-Fluoro-4-(2,2,4,4-tetramethyl-chroman-6-yl-ethynyl)phenyl]acetic Acid] | 27 | 13 | 4.22 | 0.18 |  |  | 
3 | CC(C)OC1(c2ccc(C#Cc3ccc(CC(=O)O)cc3)cc2)CC1 [Compound 74, {4-[4-(1-Isopropoxycyclopropyl)-phenylethynyl]-phenyl}-acetic Acid] | 11 | > 10 | 14 | 3.5 |  |  | 
4 | CC1(C)CC2(CC2)Oc2c(C3CC3)cc(C#Cc3ccc(CC(=O)O)c(F)c3)cc21 [Compound 50, 4-[(8-Cyclopropyl-3,4-dihydro-4,4-dimethylspiro[2H-1-benzopyran-2,1′-cyclopropane]-6-yl)ethynyl]-2-fluoro-benzeneacetic Acid] |  |  |  | 0.014 | 1 ± 0 | 3 ± 2 | 8 ± 2
5 | O=C(O)c1ccc(C#Cc2ccc(C3(OCc4ccccc4)CC3)cc2)cc1 [Compound 77, 4-[4-(1-Benzyloxycyclopropyl)-phenylethynyl]-benzoic Acid] | 2.21 | 0.016 | 0.225 | > 10 |  |  | 
6 | O=C(O)Cc1ccc(C#Cc2ccc(C3(OCc4ccccc4)CC3)cc2)cc1 [Compound 78, {4-[4-(1-Benzyloxycyclopropyl)-phenylethynyl]-phenyl}-acetic Acid] | > 10 | > 10 | > 10 | > 10 |  |  | 
7 | CC1(C)CC(C)(C)c2cc(C#Cc3ccc(C(=O)O)c(F)c3)ccc2O1 [Compound 30, 2-Fluoro-4-(2,2,4,4-tetramethyl-chroman-6-yl-ethynyl)-benzoic Acid] | 0.014 | 0.084 | 0.0022 | 0.28 |  |  | 
8 | CC1(C)CC(C)(C)c2cc(C#Cc3ccc(CC(=O)O)cc3)ccc2O1 [Compound 28, [4-(2,2,4,4-Tetramethyl-chroman-6-yl-ethynyl)phenyl]acetic Acid] | 21 | > 10 | 4.27 | 0.34 |  |  | 
9 | Cc1cc(C#Cc2ccc(CC(=O)O)cc2)ccc1C1(OCc2ccccc2)CC1 [Compound 82, {4-[4-(1-Benzyloxycyclopropyl)-3-methyl-phenylethynyl]-phenyl}-acetic Acid] | > 10 | > 10 | > 10 | > 10 |  |  | 
10 | CC1(C)CCC(=O)c2ccc(C#Cc3ccc(CC(=O)O)c(F)c3)cc21 [Compound 15, [2-Fluoro-4-(8,8-dimethyl-5-oxo-5,6,7,8-tetrahydro-naphthalene-2-yl-ethynyl)phenyl]-acetic Acid] |  |  |  |  | 1 ± 1 |  | 5 ± 2
11 | Cc1cc(C#Cc2ccc(CC(=O)O)cc2)ccc1C1(OCC(C)(C)C)CC1 [Compound 90, {4-[4-[1-(2,2-Dimethylpropyloxy)-cyclopropyl]-3-methyl-phenylethynyl]-phenyl}-acetic Acid] | > 10 | > 10 | > 10 | 0.95 |  |  | 
12 | COC1(c2ccc(C#Cc3ccc(CC(=O)O)cc3)cc2)CC1 [Compound 70, {4-[4-(1-Methoxycyclopropyl)-phenylethynyl]-phenyl}-acetic Acid] | > 10 | > 10 | > 10 | > 10 |  |  | 
13 | CC1(C)CC2(CC2)Oc2ccc(C#Cc3ccc(CC(=O)O)cc3)cc21 [Compound 42, Benzeneacetic Acid, 4-[(3,4-dihydro-4,4-dimethylspiro[2H-1-benzopyran-2,1′-cyclopropane]-6-yl)ethynyl]-] | 15 | > 10 | 3.64 | 0.19 |  |  | 

From US6369225B1, “Compounds having activity as inhibitors of cytochrome P450RAI” (Allergan Sales, Inc., priority 2000, dated 2002)
